According to ChEMBL document CHEMBL4673225, “Highly Selective PTK2 Proteolysis Targeting Chimeras to Probe Focal Adhesion Kinase Scaffolding Functions” (J Med Chem, 2019):
Activity calls are given as the source filed them. The calls are words filed in the database; no cut-off is given here.

Legend:
[1] = molecular target: T1, Protein cereblon/Focal adhesion kinase 1 (Homo sapiens, UniProt Q05397+Q96SW2); assay: Protac activity at CRBN/PTK2 in human HLF1 cells assessed as induction of PTK2 degradation incubated for 18 hrs by protein capillary electrophoresis method; format: cell-based
[2] = molecular target: T1, Protein cereblon/Focal adhesion kinase 1; assay: Protac activity at CRBN/PTK2 in human HepG2 cells assessed as induction of PTK2 degradation incubated for 18 hrs by protein capillary electrophoresis method relative to control; format: cell-based
Target sequence in this assay (Q05397 2-1052 limits assumed): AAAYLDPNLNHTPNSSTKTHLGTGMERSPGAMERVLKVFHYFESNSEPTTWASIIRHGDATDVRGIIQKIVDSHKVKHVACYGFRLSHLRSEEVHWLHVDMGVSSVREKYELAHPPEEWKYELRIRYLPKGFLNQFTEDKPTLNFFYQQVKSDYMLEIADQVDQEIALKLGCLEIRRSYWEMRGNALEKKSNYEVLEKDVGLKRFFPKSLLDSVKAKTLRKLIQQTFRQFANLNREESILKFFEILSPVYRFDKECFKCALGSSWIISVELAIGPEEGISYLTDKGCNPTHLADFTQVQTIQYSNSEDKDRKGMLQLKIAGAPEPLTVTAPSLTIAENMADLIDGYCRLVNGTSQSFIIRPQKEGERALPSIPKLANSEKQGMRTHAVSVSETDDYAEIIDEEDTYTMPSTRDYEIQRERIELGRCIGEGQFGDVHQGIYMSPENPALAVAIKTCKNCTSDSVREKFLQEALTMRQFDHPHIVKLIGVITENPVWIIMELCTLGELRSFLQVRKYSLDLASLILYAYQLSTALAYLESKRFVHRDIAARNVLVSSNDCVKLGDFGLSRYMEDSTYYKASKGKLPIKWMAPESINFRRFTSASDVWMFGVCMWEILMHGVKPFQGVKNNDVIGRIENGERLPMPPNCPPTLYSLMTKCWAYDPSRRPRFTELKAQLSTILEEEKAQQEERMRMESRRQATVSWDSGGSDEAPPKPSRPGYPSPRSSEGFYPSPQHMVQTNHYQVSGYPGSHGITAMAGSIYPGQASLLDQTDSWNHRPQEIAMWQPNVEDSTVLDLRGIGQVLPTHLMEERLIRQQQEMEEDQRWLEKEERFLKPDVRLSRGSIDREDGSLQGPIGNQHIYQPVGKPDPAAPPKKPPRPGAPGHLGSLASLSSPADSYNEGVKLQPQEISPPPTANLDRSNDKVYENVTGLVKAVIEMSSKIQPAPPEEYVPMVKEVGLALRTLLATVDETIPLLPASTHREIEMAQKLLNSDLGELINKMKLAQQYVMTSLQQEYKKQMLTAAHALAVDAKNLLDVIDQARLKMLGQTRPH
Target sequence in this assay (Q96SW2 whole entry partner): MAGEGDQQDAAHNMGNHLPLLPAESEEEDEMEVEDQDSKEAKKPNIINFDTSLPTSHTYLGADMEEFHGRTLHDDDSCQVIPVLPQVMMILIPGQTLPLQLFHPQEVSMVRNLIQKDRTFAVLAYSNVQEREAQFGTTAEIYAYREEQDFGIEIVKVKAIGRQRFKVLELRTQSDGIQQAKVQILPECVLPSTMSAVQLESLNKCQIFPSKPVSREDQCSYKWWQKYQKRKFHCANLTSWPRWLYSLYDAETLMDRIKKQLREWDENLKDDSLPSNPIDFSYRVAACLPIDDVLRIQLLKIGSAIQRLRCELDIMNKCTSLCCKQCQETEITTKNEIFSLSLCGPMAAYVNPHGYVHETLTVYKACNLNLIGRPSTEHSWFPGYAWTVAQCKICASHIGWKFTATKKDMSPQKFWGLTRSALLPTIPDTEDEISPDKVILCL

[3] = molecular target: T1, Protein cereblon/Focal adhesion kinase 1; assay: Protac activity at CRBN/PTK2 in human Hep3B2.1-7 cells assessed as induction of PTK2 degradation incubated for 18 hrs by protein capillary electrophoresis method relative to control; format: cell-based; settings: Hep3B
Target sequence in this assay (Q05397 2-1052 limits assumed): as the sequence (Q05397 2-1052 limits assumed) above
Target sequence in this assay (Q96SW2 whole entry partner): as the sequence (Q96SW2 whole entry partner) above

[4] = molecular target: T1, Protein cereblon/Focal adhesion kinase 1; assay: Protac activity at CRBN/PTK2 in human Hep3B2.1-7 cells assessed as time required for maximal induction of PTK2 degradation at 3 uM incubated for up to 80 hrs by protein capillary electrophoresis method; settings: time hrs <=80
Target sequence in this assay (Q05397 2-1052 limits assumed): as the sequence (Q05397 2-1052 limits assumed) above
Target sequence in this assay (Q96SW2 whole entry partner): as the sequence (Q96SW2 whole entry partner) above

[5] = molecular target: T1, Protein cereblon/Focal adhesion kinase 1; assay: Protac activity at CRBN/PTK2 in human Huh-7 cells assessed as induction of PTK2 degradation incubated for 18 hrs by protein capillary electrophoresis method relative to control; format: cell-based
Target sequence in this assay (Q05397 2-1052 limits assumed): as the sequence (Q05397 2-1052 limits assumed) above
Target sequence in this assay (Q96SW2 whole entry partner): as the sequence (Q96SW2 whole entry partner) above

[6] = molecular target: T1, Protein cereblon/Focal adhesion kinase 1; assay: Protac activity at CRBN/PTK2 in human Hep3B2.1-7 cells assessed as induction of PTK2 degradation incubated for 18 hrs by protein capillary electrophoresis method; format: cell-based; settings: hep3b
[7] = molecular target: T2, von Hippel-Lindau disease tumor suppressor/Focal adhesion kinase 1 (Homo sapiens, UniProt Q05397+P40337); assay: Protac activity at VHL/PTK2 in human SNU-398 cells assessed as induction of PTK2 degradation incubated for 18 hrs by protein capillary electrophoresis method relative to control; format: cell-based
Target sequence in this assay (P40337 whole entry partner): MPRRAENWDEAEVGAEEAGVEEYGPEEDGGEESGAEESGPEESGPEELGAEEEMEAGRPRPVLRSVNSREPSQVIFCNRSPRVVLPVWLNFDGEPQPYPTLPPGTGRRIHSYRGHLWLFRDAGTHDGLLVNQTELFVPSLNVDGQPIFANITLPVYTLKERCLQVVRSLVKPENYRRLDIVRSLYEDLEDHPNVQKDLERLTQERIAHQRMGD
Target sequence in this assay (Q05397 2-1052 limits assumed): as the sequence (Q05397 2-1052 limits assumed) above

[8] = molecular target: T2, von Hippel-Lindau disease tumor suppressor/Focal adhesion kinase 1; assay: Protac activity at VHL/PTK2 in human Hep3B2.1-7 cells assessed as induction of PTK2 degradation incubated for 18 hrs by protein capillary electrophoresis method relative to control; format: cell-based; settings: Hep3B
Target sequence in this assay (P40337 whole entry partner): as the sequence (P40337 whole entry partner) above
Target sequence in this assay (Q05397 2-1052 limits assumed): as the sequence (Q05397 2-1052 limits assumed) above

[9] = molecular target: T2, von Hippel-Lindau disease tumor suppressor/Focal adhesion kinase 1; assay: Protac activity at VHL/PTK2 in human HLE cells assessed as induction of PTK2 degradation incubated for 18 hrs by protein capillary electrophoresis method relative to control; format: cell-based
Target sequence in this assay (P40337 whole entry partner): as the sequence (P40337 whole entry partner) above
Target sequence in this assay (Q05397 2-1052 limits assumed): as the sequence (Q05397 2-1052 limits assumed) above

[10] = molecular target: T2, von Hippel-Lindau disease tumor suppressor/Focal adhesion kinase 1; assay: Protac activity at VHL/PTK2 in human HuH-1 cells assessed as induction of PTK2 degradation incubated for 18 hrs by protein capillary electrophoresis method relative to control; format: cell-based
Target sequence in this assay (P40337 whole entry partner): as the sequence (P40337 whole entry partner) above
Target sequence in this assay (Q05397 2-1052 limits assumed): as the sequence (Q05397 2-1052 limits assumed) above

[11] = molecular target: T2, von Hippel-Lindau disease tumor suppressor/Focal adhesion kinase 1; assay: Protac activity at VHL/PTK2 in human HuH-1 cells assessed as induction of PTK2 degradation incubated for 18 hrs by protein capillary electrophoresis method; format: cell-based
Target sequence in this assay (Q05397 whole entry): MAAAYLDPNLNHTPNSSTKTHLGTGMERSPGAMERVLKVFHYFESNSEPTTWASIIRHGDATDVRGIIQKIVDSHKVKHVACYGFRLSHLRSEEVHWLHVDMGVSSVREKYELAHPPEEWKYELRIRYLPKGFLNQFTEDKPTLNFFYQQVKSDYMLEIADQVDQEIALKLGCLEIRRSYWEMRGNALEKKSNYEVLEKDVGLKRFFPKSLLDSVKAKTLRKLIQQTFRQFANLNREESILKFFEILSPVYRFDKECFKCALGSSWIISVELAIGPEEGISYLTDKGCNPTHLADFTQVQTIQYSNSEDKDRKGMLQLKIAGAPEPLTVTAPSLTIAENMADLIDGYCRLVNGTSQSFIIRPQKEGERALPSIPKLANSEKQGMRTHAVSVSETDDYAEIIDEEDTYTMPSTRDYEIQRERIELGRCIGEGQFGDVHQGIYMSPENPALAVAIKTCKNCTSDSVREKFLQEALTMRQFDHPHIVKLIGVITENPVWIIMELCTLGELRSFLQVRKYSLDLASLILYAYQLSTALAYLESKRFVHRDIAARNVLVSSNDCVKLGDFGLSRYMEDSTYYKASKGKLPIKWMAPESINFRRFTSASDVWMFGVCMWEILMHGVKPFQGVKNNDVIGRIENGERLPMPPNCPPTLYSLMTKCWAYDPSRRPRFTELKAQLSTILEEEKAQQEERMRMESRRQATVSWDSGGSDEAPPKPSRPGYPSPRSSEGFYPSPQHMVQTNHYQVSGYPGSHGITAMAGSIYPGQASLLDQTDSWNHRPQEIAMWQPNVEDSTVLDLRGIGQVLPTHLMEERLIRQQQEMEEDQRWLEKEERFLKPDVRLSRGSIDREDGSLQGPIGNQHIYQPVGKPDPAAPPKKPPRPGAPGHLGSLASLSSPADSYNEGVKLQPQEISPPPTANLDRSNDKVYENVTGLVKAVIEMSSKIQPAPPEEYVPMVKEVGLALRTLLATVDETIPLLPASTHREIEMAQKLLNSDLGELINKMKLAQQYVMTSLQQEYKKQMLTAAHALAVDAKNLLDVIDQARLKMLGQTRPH
Target sequence in this assay (P40337 whole entry): as the sequence (P40337 whole entry partner) above

[12] = molecular target: Leucine-rich repeat serine/threonine-protein kinase 2 (Homo sapiens) (UniProt Q5S007); assay: Inhibition of LRRK2 (unknown origin) at 1 uM relative to control
[13] = molecular target: T2, von Hippel-Lindau disease tumor suppressor/Focal adhesion kinase 1; assay: Protac activity at VHL/PTK2 in human Huh-7 cells assessed as induction of PTK2 degradation incubated for 18 hrs by protein capillary electrophoresis method; format: cell-based
Target sequence in this assay (Q05397 whole entry): as the sequence (Q05397 whole entry) above
Target sequence in this assay (P40337 whole entry): as the sequence (P40337 whole entry partner) above

[14] = molecular target: T2, von Hippel-Lindau disease tumor suppressor/Focal adhesion kinase 1; assay: Protac activity at VHL/PTK2 in human A549 cells assessed as induction of PTK2 degradation at 1 to 100000 nM incubated for 18 hrs in presence of NEDD8 inhibitor […] by protein capillary electrophoresis method; format: cell-based; settings: dose 1-100000 nM
Target sequence in this assay (P40337 whole entry partner): as above
Target sequence in this assay (Q05397 2-1052 limits assumed): as the sequence (Q05397 2-1052 limits assumed) above

[15] = molecular target: Tyrosine-protein kinase Fes/Fps (Homo sapiens) (UniProt P07332); assay: Inhibition of FES (unknown origin) at 1 uM relative to control
[16] = molecular target: T2, von Hippel-Lindau disease tumor suppressor/Focal adhesion kinase 1; assay: Protac activity at VHL/PTK2 in human HLE cells assessed as induction of PTK2 degradation incubated for 18 hrs by protein capillary electrophoresis method; format: cell-based
Target sequence in this assay (Q05397 whole entry): as the sequence (Q05397 whole entry) above
Target sequence in this assay (P40337 whole entry): as the sequence (P40337 whole entry partner) above

[17] = molecular target: T2, von Hippel-Lindau disease tumor suppressor/Focal adhesion kinase 1; assay: Protac activity at VHL/PTK2 in human Hep3B2.1-7 cells assessed as time required for maximal induction of PTK2 degradation at 3 uM incubated for up to 80 hrs by protein capillary electrophoresis method; settings: time hrs <=80
Target sequence in this assay (P40337 whole entry partner): as above
Target sequence in this assay (Q05397 2-1052 limits assumed): as the sequence (Q05397 2-1052 limits assumed) above

pDC50 [1] | Emax [2] [%] | Emax [3] [%] | TIME [4] [h] | Emax [5] [%] | pDC50 [6] | Emax [7] [%] | Emax [8] [%] | Emax [9] [%] | Emax [10] [%] | pDC50 [11] | inhibition [12] [%] | pDC50 [13] | Activity [14] | inhibition [15] [%] | pDC50 [16] | TIME [17] [h] | Structure (SMILES)
6.4 | 89 | 96 | 5 | 93 | 7.9 | – | – | – | – | – | – | – | – | – | – | – | COc1cc(C(=O)NCCOCCOCCOCCC(=O)Nc2cccc3c2C(=O)N(C2CCC(=O)NC2=O)C3=O)ccc1Nc1ncc(C(F)(F)F)c(Oc2cccc3c2C(=O)CC3)n1 (configuration not stated)
– | – | – | – | – | – | 99 | 59 | 85 | 79 | 7.1 | > 90 | 7 | inactive | > 90 | 7.6 | 20 | COc1cc(C(=O)NCCOCCOCCOCC(=O)N[C@H](C(=O)N2C[C@H](O)C[C@H]2C(=O)NCc2ccc(-c3scnc3C)cc2)C(C)(C)C)ccc1Nc1ncc(C(F)(F)F)c(Oc2cccc3c2C(=O)CC3)n1
